We go through 31 molecules from patent US6207677A, “Piperidine derivatives having anxiolytic effect” (H. Lundbeck A/S, priority 1991, dated 2001).

Bounds are passed on as bounds.

One assay has as its system psychosis.
Assay: not given
Particulars: Snyder, Largent 1989; cited from earlier work.
On to `C[C@@H]1CN(CCCn2c3ccccc3c3ccccc32)C[C@H](C)N1` [rimcazole, reference compound], for which the “clinical effect in psychosis” value is reported as “clinically shows effects in the treatment of psychosis”.

The target in a further assay is sigma receptors. The experiment in a line: Inhibition of 3H-DTG binding to sigma receptors in rat brain in vitro. Particulars: 2 nM 3H-DTG, rat brain without cerebellum, 25° C., 20 min.
As a reminder, the IC50 is the concentration that gives 50% inhibition. Low values mean inhibition by little substance, high ones a need for much substance. In the case of `O=S(=O)(CCCN1CCC2(CC1)OCc1ccccc12)c1ccccc1` [Compound 2s, 1'-(3-Phenylsulfonyl-1-propyl)spiro[isobenzofuran-1 (3H),4'-piperidine]], the IC50 came out at 3.1 nM. In other words, the single-digit nanomolar range.

For the molecule `c1ccc(SCCCN2CCC3(CC2)OCc2ccccc23)cc1` [Compound 2p, 1'-(3-Phenylthio-1-propyl)spiro[isobenzofuran-1(3H),4'-piperidine]], the IC50 was 0.32 nM.

As to `Cc1ccc(C2CCN(CCCOc3cn(-c4ccc(F)cc4)c4ccc(Cl)cc34)CC2)cc1` [Compound 8d, 5-Chloro-1-(4-fluorophenyl)-3-[3-(4-(4-methylphenyl)-1-piperidinyl)-1-propyloxy]indol], the IC50 was 11 nM.

On to `O=S(=O)(c1cccs1)n1cc(CCCCN2CCC3(CC2)OCc2ccc(F)cc23)c2ccccc21` [Compound 6c, 6-Fluoro-1'-(4-(1-(2-thienyl)sulfonyl-3-indolyl)-1-butyl)spiro[isobenzofuran-1(3H),4'-piperidine)], for which the 50% inhibitory concentration (IC50) is under 0.1 nM.

Turning to `Fc1ccc(-n2cc(CCCCN3CCC(c4cccc(C(F)(F)F)c4)CC3)c3ccccc32)cc1` [Compound 9t, 1-(4-Fluorophenyl)-3-[4-(4-(3-trifluoromethylphenyl)-1-piperidyl)-1-butyl]indole], the IC50 was 3.2 nM. This counts as single-digit nanomolar.

With `FC(F)(F)c1ccc2[nH]nc(CCCCN3CCC4(CC3)OCc3ccccc34)c2c1` [Compound 18a, 1'-[4-(5-Trifluoromethylindazol-3-yl)-1-butyl]-spiro[isobenzofuran-1(3H),4'-piperidine]], the IC50 stood at 0.56 nM.

The molecule `O=S(=O)(CCCN1CCC2(CC1)OCc1ccccc12)C1CCCCC1` [Compound 2r, 1'-(3-Cyclohexylsulfonyl-1-propyl)spiro[isobenzofuran-1(3H),4'-piperidine]] showed an IC50 of 3 nM.

For `c1ccc2c(c1)COCC21CCN(CCCCCCc2c[nH]c3ccccc23)CC1` [Compound 2y, 1'-[6-(3-Indolyl)-1-hexyl]-spiro[1H-2-benzopyran-4(3H),4'-piperidine]], the IC50 came to 0.84 nM.

Molecule `c1ccc2c(c1)COC21CCN(CCCCc2nsc3ccccc23)CC1` [Compound 22, 1'-(4-(1,2-Benzisothiazol-3-yl)-1-butyl)spiro[isobenzofuran-1(3H),4'-piperidine]] returned an IC50 of 0.05 nM. Against the preceding molecule, the IC50 is about 17-fold lower.

Regarding `c1ccc(CCCCCN2CCC3(CC2)OCc2ccccc23)cc1` [Compound 4e, 1'-(5-Phenyl-1-pentyl)-spiro[isobenzofuran-1 (3h),4'-piperidine]], the IC50 amounted to 0.2 nM. Compared with the last molecule, the IC50 is about 4-fold higher.

Turning to `Cc1ccc2c(c1)COC21CCN(CCCCc2cn(-c3ccc(F)cc3)c3ccccc23)CC1` [Compound 9h, 1'-[4-[1-(4-Fluorophenyl)-3-indolyl]-1-butyl]-5-methylspiro[isobenzofuran-1(3H),4'-piperidine]], the IC50 turned out to be 2.3 nM.

As for `CSCCCN1CCC2(CC1)OCc1ccccc12` [Compound 2n, 1'-(3-Methylthio-1-propyl)spiro[isobenzofuran-1(3H),4'-piperidine]], the IC50 worked out at 6 nM. Against the preceding molecule, the IC50 is about 2.6-fold higher.

In turn, `Fc1ccc2occ(CCCN3CCC4(CC3)OCc3ccccc34)c2c1` [Compound 15, 1'-[3-(5-Fluorobenzofuran-3-yl)-1-propyl)spiro[isobenzofuran-1(3H) ,4'-piperidine]] returned an IC50 of 0.42 nM.

Regarding `c1ccc2c(c1)COC21CCN(CCCOC2CCCCC2)CC1` [Compound 2j, 1'-(3-Cyclohexyloxy-1-propyl)spiro[isobenzofuran-1(3H),4'-piperidine]], the IC50 was 0.07 nM. This IC50 is about 6-fold lower than that of the molecule before.

Molecule `Fc1ccc2c(c1)C1(CCN(CCCCc3c[nH]c4ccccc34)CC1)OC2` [Compound 2jj, 6-Fluoro-1'-(4-(3-indolyl)-1-butyl)spiro[isobenzofuran-1(3H),4'-piperidine]] had an IC50 of 1.4 nM.

As for `O=C1N(CCN2CCC3(CC2)OCc2ccccc23)CCN1C1CCCCC1` [Compound 3d, 1'-(2-(3-Cyclohexylimidazolidin-2-on-1-yl)-1-ethyl)spiro[isobenzofuran-1(3H),4'-piperidine)], the IC50 was determined as 7.3 nM.

`Fc1ccc2[nH]cc(CCCCN3CCC4(CC3)OCc3ccccc34)c2c1` [Compound 2aa]: the IC50 is 0.3 nM. Against the preceding molecule, the IC50 is about 24-fold lower.

In turn, `c1ccc2c(c1)COC21CCN(CCOCc2csc3ccccc23)CC1` [Compound 35a, 1'-[2-(Benzo[b]thiophen-3-ylmethyloxy)-1-ethyl]spiro[isobenzofuran-1(3H),4'-piperidine]] yielded an IC50 of 0.73 nM.

In turn, `c1ccc2c(c1)COC21CCN(CCCCc2cn(-c3nccs3)c3ccccc23)CC1` [Compound 9q, 1'-[4-(1-(2-Thiazolyl)-3-indolyl)-1-butyl]spiro[isobenzofuran-1(3H) ,4'-piperidine]] gave an IC50 of 0.12 nM. This IC50 is about 6.1-fold lower than that of the molecule before.

For the molecule `c1ccc2c(c1)COC21CCN(CCCCc2cn(-c3ccncc3)c3ccccc23)CC1` [Compound 5g, 1'-[4-[1-(4-Pyridyl)-3-indolyl]-1-butyl]spiro[isobenzofuran-1(3H),4'-piperidine]], the IC50 came out at 4 nM.

`c1ccc2c(c1)COC1(CCN(CCCCc3csc4ccccc34)CC1)C2` [Compound 10b, 1,4-Dihydro-1'-(4-(benzo[b]thiophen-3-yl)-1-butyl)spiro[3H-2-benzopyran-3,4'-piperidine]] had an IC50 of 1.3 nM. This IC50 is about 3.1-fold lower than that of the molecule before.

The molecule `O=C1N(CCN2CCC3(CC2)OCc2ccccc23)CCN1c1ccccc1` [Compound 3b] displayed an IC50 of 4.8 nM. This IC50 lies about 3.7-fold higher than the previous one.

Take `c1ccc(CCCCN2CCC3(CC2)COCc2ccccc23)cc1` [Compound 2f]: the IC50 is 0.95 nM.

In turn, `Fc1ccc(-n2cc(OCCCN3CCC4(CC3)OCc3ccccc34)c3ccc(Cl)cc32)cc1` [Compound 8b, 1'-[3-[6-Chloro-1-(4-fluorophenyl)-3-indolytoxy)-1-propyl]spiro[isobenzofuran-1(3M),4'-piperidine]] had an IC50 of 1.7 nM.

As for `Fc1ccc(-n2cc(CCCCN3CCC(c4ccccc4)CC3)c3ccccc32)cc1` [Compound 5f, 1-(4-Fluorophenyl)-3-[4-(4-phenyl-1-piperidyl)-1-butyl]indole], the IC50 amounted to 0.04 nM. This IC50 is about 42-fold lower than that of the molecule before.

In turn, `Fc1ccc2occ(CCCCN3CCC4(CC3)OCc3ccccc34)c2c1` [Compound 16, 1'-[4-(5-Fluorobenzofuran-3-yl)-1-butyl]-spiro[isobenzofuran-1(3H) ,4'-piperidine]] displayed an IC50 of 0.15 nM. Against the preceding molecule, the IC50 is about 3.8-fold higher.

The molecule `C1=CC2(CCN(CCCCc3ccccc3)CC2)Oc2ccccc21` [Compound 2i, 1'-(4-Phenyl-1-butyl)spiro[2H-1-benzopyran-2,4'-piperidine]] came in with an IC50 of 4.3 nM.

With `Fc1ccc2c(c1)c(CCCCN1CCC3(CC1)OCc1ccccc13)cn2-c1ccsc1` [Compound 9j, 1'-[4-[5-Fluoro-1-(3-thienyl)-3-indolyl]-1-butyl]-spiro[isobenzofuran-1(3H),4'-piperidine]], the IC50 was 0.11 nM. Compared with the last molecule, the IC50 is about 39-fold lower.

The molecule `c1ccc(Cn2cc(CCCCN3CCC4(CC3)OCc3ccccc34)c3ccccc32)cc1` [Compound 2hh, 1'-[4-(1-Benzyl-3-indolyl)-1-butyl]-spiro[isobenzofuran-1(3h),4'-piperidine]] registered an IC50 of 0.02 nM.

Regarding `O=C1N(CCCN2CCC3(CC2)OCc2ccccc23)CCN1c1ccccc1` [Compound 3c], the IC50 came out at 1 nM. This IC50 lies about 50-fold higher than the previous one.
